In patent US8486374B2, “Hydrophilic, non-aqueous pharmaceutical carriers and compositions and uses” (Foamix Ltd., priority 2004, dated 2013):
Like-named read-outs stand apart in the source and are kept apart here.

Key:
[1] = Foam quality grading upon release from the aerosol container; assay type: physicochemical; settings: active agent in stock of PEG-400 97.5, hydroxypropyl cellulose 0.5, steareth 2 2.0 (first Example 29)
Description: Foam quality can be graded as follows:
Grade FG (fairly good): a moderate amount of creaminess noticeable, bubble structure is noticeable; upon spreading on the skin the product dulls rapidly and becomes somewhat lower in apparent viscosity.
Grade F (fair): very little creaminess noticeable, larger bubble structure than a “fairly good” foam, upon spreading on the skin it becomes thin in appearance and watery.
Grade P (poor): no creaminess noticeable, large bubble structure, and when spread on the skin it becomes very thin and watery in appearance.
Grade VP (very poor): dry foam, large very dull bubbles, difficult to spread on the skin.

[2] = Shakability of the composition; assay type: physicochemical
Description: ‘Shakability’ means that the composition contains some or sufficient flow to allow the composition to be mixed or remixed on shaking. That is, it has fluid or semi fluid properties. A breakable foam is that is thermally stable, yet breaks under sheer force.
‘Shakability’ means that the composition contains some or sufficient flow to allow the composition to be mixed or remixed on shaking. That is, it has fluid or semi fluid properties. In some very limited cases it may still be possible to have a foamable composition which is flowable but not apparently shakable.

[3] = Foam appearance (color, odor, form); assay type: physicochemical; set-up: key to ODOR: No odor (N.O.); key to COLOR: white (W)
[4] = test system: candida albicans; assay: Comparative in-vitro antifungal activity (Petri dish spreading); assay type: cell-based
Description: An exemplary case for the inclusion of an anti-infective agent in a hygroscopic composition is provided herewith. […] Thus, combining an antifungal agent in a hygroscopic composition results in an expansion of the spectrum of infective strains that can benefit form the therapy, and furthermore, in can render an improved effect of such a composition on mixed infections or in infections that are not accurately diagnosed.
A comparative in-vitro study was set to evaluate the effect of Composition A, consisting of 2% terbinafine, 95.3% gr. polyethylene glycol, 0.5% hydroxypropyl cellulose and 2.2% steareth-2, in comparison with Composition B (an oil in water emulsion containing 2% terbinafine) and Composition C a commercial 1% bifonazole cream.
Three fungal strains (microsporum canis, trichophyton mentagrophytes and trichophyton rubrum) and one yeast (candida albicans) were seeded in the center of a Petri dish, and then, were surrounded by a film containing each of the compositions, using a swab, soaked with each of the compositions. The proliferation and spreading of the microorganisms was followed up for 14 day by visual and photographic observations.

[5] = in common formulation excipients; cited from earlier work
[6] = Solubility of the active agent in solvents/carriers; assay type: physicochemical; settings: in the polyol and DMI mixture (Example 19 composition)
[7] = active agent in stock of PEG-400 97.5, hydroxypropyl cellulose 0.5, steareth 2 2.0 (first Example 29)
[8] = active agent in stock of propylene glycol 46, glycerin 33, dimethyl isosorbide 15, stearyl alcohol, hydroxypropyl cellulose, laureth-4, GMS/PEG 100 stearate (Example 30)
[9] = active agent in stock of propylene glycol 91, stearyl alcohol 2, Klucel EF 2, laureth-4 2, glyceryl monostearate/PEG 100 stearate 3 (second Example 29)

| SMILES | QUALITY [1] | SHAKABILITY [2, 7] | SHAKABILITY [2, 8] | SHAKABILITY [2, 9] | COLOR [3, 7] | ODOR [3, 7] | COLOR [3, 8] | ODOR [3, 8] | COLOR [3, 9] | ODOR [3, 9] | inhibition of the spreading of candida albicans ([4]; control preparation, same concentration in an emulsion base) | inhibition of the spreading of candida albicans ([4]; dissolved in a hygroscopic carrier) | solubility [5] | solubility [6] |
| --- | --- | --- | --- | --- | --- | --- | --- | --- | --- | --- | --- | --- | --- | --- |
| O=C(O)Cc1ccccc1Nc1c(Cl)cccc1Cl [Diclofenac sodium] | G+ | Yes | Yes | Yes | W | N.O | W | N.O | W | N.O | – | – | – | – |
| CN(C/C=C/C#CC(C)(C)C)Cc1cccc2ccccc12 [terbinafine] | – | – | – | – | – | – | – | – | – | – | not effective | effectively inhibited the spreading | hard to dissolve | – |
| Nc1nc2c(ncn2COCCO)c(=O)[nH]1 [Acyclovir] | – | Yes | Yes | Yes | W | N.O | O.W | N.O | O.W | N.O | – | – | – | not fully soluble |
